# Where a name gives a salt, the structure may show the parent alone.
# What was measured:
# BJ fibroblasts [1] = experiment: Experiment 1: WST-1 viability of BJ fibroblast monoculture, direct exposure; conditions: for toxicity to BJ fibroblast monocultures: drug as such, without HepaRG treatment
# Source text: (§1) Cell viability/cytotoxicity was always investigated using WST-1 assay. The assay principle is based on the conversion of the tetrazolium salt WST-1 into a colored dye by mitochondrial dehydrogenase enzymes. The soluble salt is released into the media. Within a given time period, the reaction produces a color change which is directly proportional to the amount of mitochondrial dehydrogenase in a given culture. As a result, the assay actually measures the net metabolic activity of cells. Theoretically, this is reflective of cell number • the more cells, the more dehydrogenase available to reduce the reagent.
# (§2) BJ cell suspension was prepared at a density of 40 000 cells/ml in BJ cell culture medium. 100 μl of this suspension was pipetted to a 96-well plate resulting in 4000 cells/well.
# (§3) Selegiline and paracetamol dilutions were prepared on the day of use. First, 1 mg/ml stocks were prepared from both drugs, then 200 and 20 μg/ml dilutions were prepared from paracetamol stock, and 200, 20, 10, 5 and 2 μg/ml dilutions from selegiline stock. The stocks and dilutions were prepared in BJ chemical dilution medium. Selegiline toxicity was studied more extensively than paracetamol, because there was no previous data of selegiline toxicity to BJ fibroblasts. Instead, paracetamol toxicity to human BJ fibroblasts has been extensively studied.
# (§4) BJ cell culture medium was removed from the cells by dumping and blotting the plate carefully on sterile towel. Immediately, 50 μl BJ cell culture medium was added to all wells, and then 50 μl test item dilutions (selegiline or paracetamol) or 50 μl vehicle control. […] BJ chemical dilution medium was used as vehicle control. […] One of the plates was incubated for 3 hrs and the other for 20 hrs.
# (§5) After the 3-hours or 20 hrs incubation, 10 μl WST-1 reagent was added into the wells. The plate was incubated for 2 hrs, thereafter absorbance was read at 450 nm.
# (§6) Blank values (contained all reagents, including drugs, but no cells) were subtracted from the absorbance data. […] The statistical difference between untreated control and treated cells was assessed using t-test (SigmaPiot).
# [2] = as above; conditions: human
# Source text: as §1, §2, §3, §4, §5, §6
# BJ fibroblasts [3] = experiment: Experiments 2-3: HepaRG/BJ co-culture separated by GrowDex barrier, dosing via HepaRG, WST-1, BJ side; conditions: for MEAN absorbance at 450 nm / MEDIAN absorbance at 450 nm / viability, % of control: BJ cells
# Source text: as §1, with “reagent. […]” for “reagent.”
# (§7) The mean absorbances were calculated separately for each well and both sides of the barrier. The decision on the acceptability of the data was made individually for each well. The data of the well was accepted provided that the barrier functioned properly, i.e. the ratio of HepaRG and BJ absorbances at 450 nm was >2.0.
# (§8) GrowDex barriers were prepared to split the wells of a 24-well plate into two “equally sized” compartments as follows. 250 μl GrowDex was pipetted to the wells (using positive displacement pipette) to construct the first layer of the barrier. The barriers were left to dry in the laminar hood for 1 hr with the lid open. Then a second layer was pipetted on the top of the first layer.
# (§9) BJ cell suspension was prepared at a density of 70 000 cells/ml BJ cell culture medium, and 150 μl of this suspension was pipetted to the right side of the barriers resulting in 10 500 cells/well.
# (§10) HepaRG suspension was prepared at a density of 2 million HepaRG cells/ml HepaRG® Thawing/Plating/General Purpose Medium 670. Medium was removed from the left side of the barrier. 150 μl HepaRG suspension, i.e., 300 000 cells was added to each well. The plate was gently agitated in back-and-forth and side-to-side manner, and the homogeneity of the cell distribution was ensured visually. The plate was placed back into cell culture incubator and the cells were let recover for 4 hrs before exposure.
# (§11) Medium was carefully removed from the HepaRG cells (left side of the barrier), and replaced with 75 μl/well HepaRG TOX Medium/well. This was performed one well at a time.
# [4] = as above; conditions: human, decrease of BJ viability, 10 μg/ml via HepaRG, 3 hrs
# Source text: as §1, with “reagent. […]” for “reagent.”
# as §7, §8, §9, §10, §11
# [5] = Experiments 2-3: HepaRG/BJ co-culture separated by GrowDex barrier, dosing via HepaRG, WST-1, HepaRG side; type: cell-based; conditions: human
# Procedure: (§12) The soluble salt is released into the media.
# (§13) Eight barriers were prepared using this method. […] Four barriers were prepared using this method.
# (§14) The plate was incubated for 1 hr.
# (§15) This was performed one well at a time.
# (§16) Absorbance was read using the Multipoint measurement.
# HepaRG cells = experiment: as above; type: cell-based; conditions: for MEAN absorbance at 450 nm / MEDIAN absorbance at 450 nm / viability, % of control: HepaRG
# Procedure: as §12, §13, §14, §15, §16
# BJ fibroblasts [6] = experiment: Experiment 4: BJ cells exposed to direct or HepaRG-conditioned paracetamol, WST-1; type: cell-based, Human; conditions: 500 μg/ml, conditioned 20 hrs with HepaRG, 24 hrs exposure
# Procedure: The HepaRG cells that were left from Experiment 3 were seeded to a 25 cm^2 cell culture flask, and cultured for 1 week. Medium (HepaRG induction medium) was renewed twice during the week.
# The medium was removed from HepaRG cells (grown in a 25 cm^2 flask), and replaced by 2.5 ml of HepaRG TOX medium. Then 2.5 ml of 1 mg/ml paracetamol prepared in HepaRG TOX medium was added to the flask (final paracetamol concentration 500 μg/ml). HepaRG cells were incubated with paracetamol for 20 hrs.
# The medium was removed from BJ cells, and replaced by 500 μg/ml paracetamol in BJ chemical dilution medium or 500 μg/ml HepaRG-conditioned-paracetamol in HepaRG TOX-medium. BJ chemical dilution medium and HepaRG TOX medium served as vehicle controls. All treatments were tested in 16 parallel wells. The exposure time was 24 hrs.
# After the exposure, 10 μl WST-1 reagent was added to the wells. The plate was incubated for 2 hrs, and the absorbance was read at 450 nm.
# [7] = 1 μg/ml selegiline via HepaRG, 3 hrs
# [8] = 5 μg/ml selegiline via HepaRG, 3 hrs
# [9] = 10 μg/ml selegiline via HepaRG, 3 hrs
# [10] = 250 μg/ml paracetamol via HepaRG, 4 hrs
# [11] = 250 μg/ml paracetamol via HepaRG, 20 hrs
# [12] = 500 μg/ml paracetamol via HepaRG, 4 hrs
# [13] = 500 μg/ml paracetamol via HepaRG, 20 hrs
smiles,measurement,setting,value
"C#CCN(C)[C@H](C)Cc1ccccc1 [selegiline, Selegiline hydrochloride]",toxicity to BJ fibroblast monocultures,BJ fibroblasts [1],not toxic
same,increase of BJ fibroblast viability,BJ fibroblasts [1]; lowest selegiline concentrations,~10%
same,cytotoxicity at 500 μg/ml,[2],~10%
same,effect on BJ viability,"BJ fibroblasts [3]; 1 and 5 μg/ml via HepaRG, 3 hrs",seemed to increase
same,MEAN absorbance at 450 nm,BJ fibroblasts [3]; [7],1.429
same,MEDIAN absorbance at 450 nm,BJ fibroblasts [3]; [7],1.539
same,"viability, % of control",BJ fibroblasts [3]; [7],141.43 % of control
same,MEAN absorbance at 450 nm,BJ fibroblasts [3]; [8],1.219
same,MEDIAN absorbance at 450 nm,BJ fibroblasts [3]; [8],1.243
same,"viability, % of control",BJ fibroblasts [3]; [8],120.69 % of control
same,MEAN absorbance at 450 nm,BJ fibroblasts [3]; [9],0.760
same,MEDIAN absorbance at 450 nm,BJ fibroblasts [3]; [9],0.676
same,"viability, % of control",BJ fibroblasts [3]; [9],75.19 % of control
same,"cytotoxicity at 3 h, 10 μg/ml",[4],~25%
same,"cytotoxicity at 3 h, 10 μg/ml","[5]; 10 μg/ml, 3 hrs, read-out: decrease of HepaRG viability",~5%
same,effect on HepaRG viability,"HepaRG cells; 1 and 5 μg/ml, 3 hrs",seemed to increase
same,MEAN absorbance at 450 nm,"HepaRG cells; 1 μg/ml selegiline, 3 hrs",3.486
same,MEDIAN absorbance at 450 nm,"HepaRG cells; 1 μg/ml selegiline, 3 hrs",3.794
same,"viability, % of control","HepaRG cells; 1 μg/ml selegiline, 3 hrs",114.23 % of control
same,MEAN absorbance at 450 nm,"HepaRG cells; 5 μg/ml selegiline, 3 hrs",3.344
same,MEDIAN absorbance at 450 nm,"HepaRG cells; 5 μg/ml selegiline, 3 hrs",3.588
same,"viability, % of control","HepaRG cells; 5 μg/ml selegiline, 3 hrs",109.57 % of control
same,MEAN absorbance at 450 nm,"HepaRG cells; 10 μg/ml selegiline, 3 hrs",2.892
same,MEDIAN absorbance at 450 nm,"HepaRG cells; 10 μg/ml selegiline, 3 hrs",3.078
same,"viability, % of control","HepaRG cells; 10 μg/ml selegiline, 3 hrs",94.77 % of control
"CC(=O)Nc1ccc(O)cc1 [paracetamol, Paracetamol]",effect of HepaRG-treatment on BJ fibroblast viability,BJ fibroblasts [6],minor effect
same,increase of BJ cell viability,"BJ fibroblasts [1]; 500 μg/ml, 3 hrs exposure",~9%
same,toxicity to BJ fibroblast monocultures,BJ fibroblasts [1],not toxic
same,effect on viability of BJ fibroblasts,"BJ fibroblasts [1]; up to 500 μg/ml, 3 and 20 hrs",did not reduce the viability
same,increase of BJ cell viability,"BJ fibroblasts [3]; 250 μg/ml via HepaRG, 4 hrs",~40%
same,increase of BJ viability,"BJ fibroblasts [3]; 250 μg/ml via HepaRG, 20 hrs",~30%
same,effect on BJ cell viability,"BJ fibroblasts [3]; 500 μg/ml via HepaRG, short exposure (4 hrs)",did not affect cell viability
same,MEAN absorbance at 450 nm,BJ fibroblasts [3]; [10],1.685
same,MEDIAN absorbance at 450 nm,BJ fibroblasts [3]; [10],1.777
same,"viability, % of control",BJ fibroblasts [3]; [10],140.89 % of control
same,MEAN absorbance at 450 nm,BJ fibroblasts [3]; [11],1.777
same,MEDIAN absorbance at 450 nm,BJ fibroblasts [3]; [11],1.801
same,"viability, % of control",BJ fibroblasts [3]; [11],128.23 % of control
same,MEAN absorbance at 450 nm,BJ fibroblasts [3]; [12],1.188
same,MEDIAN absorbance at 450 nm,BJ fibroblasts [3]; [12],1.164
same,"viability, % of control",BJ fibroblasts [3]; [12],99.34 % of control
same,MEAN absorbance at 450 nm,BJ fibroblasts [3]; [13],1.356
same,MEDIAN absorbance at 450 nm,BJ fibroblasts [3]; [13],1.325
same,"viability, % of control",BJ fibroblasts [3]; [13],97.89 % of control
same,"cytotoxicity at 4 h, 250 μg/ml","[5]; 250 μg/ml, 4 hrs, read-out: decrease of HepaRG viability",~15%
same,"cytotoxicity at 20 h, 500 μg/ml","[5]; highest concentration (500 μg/ml), 20 hrs, read-out: reduction of HepaRG viability",~10%
same,effect on HepaRG cell viability,"HepaRG cells; 500 μg/ml, short exposure (4 hrs)",did not affect cell viability
same,MEAN absorbance at 450 nm,"HepaRG cells; 250 μg/ml paracetamol, 4 hrs",3.571
same,MEDIAN absorbance at 450 nm,"HepaRG cells; 250 μg/ml paracetamol, 4 hrs",3.513
same,"viability, % of control","HepaRG cells; 250 μg/ml paracetamol, 4 hrs",85.58 % of control
same,MEAN absorbance at 450 nm,"HepaRG cells; 250 μg/ml paracetamol, 20 hrs",4.196
same,MEDIAN absorbance at 450 nm,"HepaRG cells; 250 μg/ml paracetamol, 20 hrs",4.239
same,"viability, % of control","HepaRG cells; 250 μg/ml paracetamol, 20 hrs",105.78 % of control
same,MEAN absorbance at 450 nm,"HepaRG cells; 500 μg/ml paracetamol, 4 hrs",4.074
same,MEDIAN absorbance at 450 nm,"HepaRG cells; 500 μg/ml paracetamol, 4 hrs",4.134
same,"viability, % of control","HepaRG cells; 500 μg/ml paracetamol, 4 hrs",97.65 % of control
same,MEAN absorbance at 450 nm,"HepaRG cells; 500 μg/ml paracetamol, 20 hrs",3.606
same,MEDIAN absorbance at 450 nm,"HepaRG cells; 500 μg/ml paracetamol, 20 hrs",3.771
same,"viability, % of control","HepaRG cells; 500 μg/ml paracetamol, 20 hrs",90.91 % of control

# From US12258547B2, “Cell culture plate, method for preparing thereof and method for detecting a substance” (UPM-Kymmene Corporation, priority 2019, dated 2025)
